# Data: patent publication US20080131406A1, “Angiotensin I Derivatives” (NATIONAL UNVERSITY OF SINGAPORE, priority 2005, published 2008)
# Legend:
# [1] = tested on: neointima formation in catheter-injured carotid artery; assay: Neointima formation after balloon catheter injury of the left carotid artery in rats; assay type: in vivo, Sprague Dawley (SD) rats; conditions: for % of Lumen Occlusion by Neointima (in catheter-injured carotid artery): mean ± SEM, 6 rats
# Text: SD rats were subjected to left carotid artery injury by the balloon technique according to the method described by Indolfi et al (Circulation, 92:1230-1235 (1995)). In this procedure, rats were anesthetized with chloral hydrate (0.35 g/kg) and a balloon catheter (2F Fogarty, Edwards Laboratories) was introduced through the left external carotid artery into the common carotid artery. The balloon was inflated to a pressure of 2.2 kg/cm^2 by compressed carbogen gas mixture (95% O2 and 5% CO2) and passed three times (three cycles) along the common carotid artery. The catheter was removed, the left external carotid artery was ligated, and the wound was closed. Formation of neointima in the catheter-injured carotid artery occurred and slowed considerably after 14 days (Clowes and Clowes, Lab. Invest., 52:611-616 (1985)). The right common carotid artery was left intact and served as the control artery.
# Following the surgery, each animal was placed in a cage. The animals had access to water and rat chow ad libitum. The animals were randomly divided into the control group and treatment group. Each group consisted of 6 animals. The treatment group was orally administered various doses of angiotensin IV (60-360 nmoles/kg/day or 46.5-279 μg/kg/day) dissolved in 0.5 ml saline for 13 days commencing on the day of surgery. Control animals were balloon catheterized animals that were administered saline instead of the angiotensin IV solution.
# On the fourteenth day following balloon catheterization, animals were anesthetized as before and both the left and right common arteries of each rat were fixed by perfusion at 120 mm Hg with 100 ml of saline followed by 250 ml of 0.1 M phosphate buffer (pH 7.4) containing 4% paraformaldehyde and 1% glutaralaldehyde and processed for paraffin embedment. Sections of 10 μm thickness were prepared and stained with toluidine blue. Twenty of such sections were cut from the midportion of the artery towards the distal end and used for morphometric evaluation of neointima formation. The area of the medial smooth muscle cells, lumen, and neointima of each section was morphometrically quantitated using an image analysis system consisting of a BX40 light microscope (Olympus, Japan) fitted with a KY-F55B color video camera (JVC, Japan) and a Pentium 166 MHz/MMX microcomputer (Datamini, Singapore) installed with an Image Pro Plus 3.0 System (Media Cybernetics, USA) for Windows 95™. The extent of neointima formation was expressed as a percentage of occlusion of the lumen by the neointima.
# [2] = tested on: experimentally-induced cardiac hypertrophic rats; assay: Cardiac hypertrophy induced by abdominal aorta coarctation in rats; assay type: in vivo, Sprague Dawley (SD) rats; conditions: for Hypertrophy Index (ventricle weight in mg/body weight in g): aorta-coarcted rats, mean ± SEM, 10 rats
# Description: The experimental protocol for induction of cardiac hypertrophy in rats was carried out as described by Everett et al (Hypertension, 23:587-592 (1994)). In this procedure, each rat was anaesthetized with 7% w/v chloral hydrate (0.35 g/kg, intraperitoneally). An incision was made in the ventral abdominal wall to access the suprarenal portion of the abdominal aorta. This portion of the abdominal aorta was dissected free and a blunt 23-guage needle was placed adjacent to the aorta. A ligature was placed around the blunt needle and the aorta. The blunt needle was then removed, leaving the aorta constricted to the size of the needle. The resulting coarctation resisted the normal flow of blood from the heart to the lower portion of the body and placed an extra load on the heart. This extra load causes hypertrophy of the heart, especially the left ventricle.
# Following surgery, each animal was placed in a cage. The animals had access to water and rat chow ad libitum. The animals were randomly divided into the control group and treatment group. Each group consisted of 10 animals. The treatment group was orally administered various doses of angiotensin IV (95-380 nmoles/kg/day or 74-294 μg/kg/day) dissolved in 0.5 ml saline for four days commencing on the day of surgery. Control animals with coarcted abdominal aorta were administered saline instead of the angiotensin IV solution. Sham animals were animals that underwent the same surgical operations but their aortas were not coarcted.
# On the fifth day following surgery, animals were anaesthetised as before. The heart of each animal was then excised, the ventricles dissected and the weight of the ventricles was determined. The index of the ventricle weight (in mg) over the body weight of the animal (in g) was taken as the index of hypertrophy. For sham-operated animals the index was around 2.6, for aorta-coarcted animas the index was above 3.7.
# Data were expressed as mean ±SEM. Significant differences were determined by one-way ANOVA and post hoc Newman Kleuf test. The accepted level of significance was p<0.05. […] The effect was dose-dependent and significant anti-cardiac hypertrophic action was brought about by an oral dose of 190 nmoles/kg/day (or 147 μg/kg/day).
structure (smiles),measurement,setting,value
CC[C@H](C)[C@H](NC(=O)[C@H](Cc1ccc(O)cc1)NC(=O)[C@@H](N)C(C)C)C(=O)N[C@@H](Cc1cnc[nH]1)C(=O)N1CCC[C@H]1C(=O)N[C@@H](Cc1ccccc1)C(=O)O [angiotensin IV],% of Lumen Occlusion by Neointima (in catheter-injured carotid artery),[1]; 60 nmole/kg/day oral for 13 days,52 ± 5%
same,% of Lumen Occlusion by Neointima (in catheter-injured carotid artery),[1]; 120 nmole/kg/day oral for 13 days,48 ± 1%
same,% of Lumen Occlusion by Neointima (in catheter-injured carotid artery),"[1]; 240 nmole/kg/day oral for 13 days, significantly different from Control (p < 0.05)",*43 ± 2%
same,% of Lumen Occlusion by Neointima (in catheter-injured carotid artery),"[1]; 360 nmole/kg/day oral for 13 days, significantly different from Control (p < 0.05)",*44 ± 2%
same,oral dose bringing about maximum anti-neointima action,"[1]; oral for 13 days, action dose-dependent, or 186 μg/kg/day",240 nmol/kg/day
same,effect on the thickness of the medial muscle layer,"[1]; oral, 13 days, catheter-injured carotid artery",no significant effect
same,Hypertrophy Index (ventricle weight in mg/body weight in g),[2]; 95 nmole/kg/day oral for 4 days,3.73 ± 0.04
same,Hypertrophy Index (ventricle weight in mg/body weight in g),"[2]; 190 nmole/kg/day oral for 4 days, significantly different from Control (p < 0.05)",*3.23 ± 0.07
same,Hypertrophy Index (ventricle weight in mg/body weight in g),"[2]; 380 nmole/kg/day oral for 4 days, significantly different from Control (p < 0.05)",*3.40 ± 0.07
same,oral dose bringing about significant anti-cardiac hypertrophic action,"[2]; oral, 4 days, effect dose-dependent, or 147 μg/kg/day",190 nmol/kg/day
